Columns and labels:
[1] = biological target: Activin receptor type-2A (Homo sapiens) (UniProt P27037); settings: Compound concentration 1000.0 nM
[2] = biological target: Activin receptor type-1-like (Homo sapiens) (UniProt P37023); settings: Compound concentration 1000.0 nM
[3] = biological target: 5'-AMP-activated protein kinase catalytic subunit alpha-1 (Homo sapiens) (UniProt Q13131); settings: Compound concentration 1000.0 nM
[4] = biological target: NUAK family SNF1-like kinase 1 (Homo sapiens) (UniProt O60285); settings: Compound concentration 1000.0 nM
[5] = biological target: Aurora kinase A (Homo sapiens) (UniProt O14965); settings: Compound concentration 1000.0 nM
[6] = biological target: Calcium/calmodulin-dependent protein kinase type 1B (Homo sapiens) (UniProt Q6P2M8); settings: Compound concentration 1000.0 nM
[7] = biological target: Calcium/calmodulin-dependent protein kinase kinase 2 (Homo sapiens) (UniProt Q96RR4); settings: Compound concentration 1000.0 nM
[8] = biological target: Serine/threonine-protein kinase Chk2 (Homo sapiens) (UniProt O96017); settings: Compound concentration 1000.0 nM
[9] = biological target: Macrophage colony-stimulating factor 1 receptor (Homo sapiens) (UniProt P07333); settings: Compound concentration 1000.0 nM
[10] = biological target: Casein kinase I isoform gamma-3 (Homo sapiens) (UniProt Q9Y6M4); settings: Compound concentration 1000.0 nM
[11] = biological target: Casein kinase II subunit alpha (Homo sapiens) (UniProt P68400); settings: Compound concentration 1000.0 nM
[12] = biological target: Ephrin type-A receptor 4 (Homo sapiens) (UniProt P54764); settings: Compound concentration 1000.0 nM
[13] = biological target: Mitogen-activated protein kinase 3 (Homo sapiens) (UniProt P27361); settings: Compound concentration 1000.0 nM
[14] = system: Fibroblast growth factor receptor 3 (Homo sapiens), P22607 [G697C]; settings: Compound concentration 1000.0 nM
[15] = biological target: Tyrosine-protein kinase Fgr (Homo sapiens) (UniProt P09769); settings: Compound concentration 1000.0 nM
[16] = biological target: Glycogen synthase kinase-3 alpha (Homo sapiens) (UniProt P49840); settings: Compound concentration 1000.0 nM
[17] = biological target: Tyrosine-protein kinase HCK (Homo sapiens) (UniProt P08631); settings: Compound concentration 1000.0 nM
[18] = biological target: Hormonally up-regulated neu tumor-associated kinase (Homo sapiens) (UniProt P57058); settings: Compound concentration 1000.0 nM
[19] = biological target: Insulin receptor-related protein (Homo sapiens) (UniProt P14616); settings: Compound concentration 1000.0 nM
[20] = biological target: Tyrosine-protein kinase JAK1 (Homo sapiens) (UniProt P23458); settings: Compound concentration 1000.0 nM
[21] = biological target: Mast/stem cell growth factor receptor Kit (Homo sapiens) (UniProt P10721); settings: Compound concentration 1000.0 nM
[22] = biological target: Leukocyte tyrosine kinase receptor (Homo sapiens) (UniProt P29376); settings: Compound concentration 1000.0 nM
[23] = biological target: Dual specificity mitogen-activated protein kinase kinase 3 (Homo sapiens) (UniProt P46734); settings: Compound concentration 1000.0 nM
[24] = biological target: MAP kinase-interacting serine/threonine-protein kinase 1 (Homo sapiens) (UniProt Q9BUB5); settings: Compound concentration 1000.0 nM
[25] = biological target: Serine/threonine-protein kinase MRCK alpha (Homo sapiens) (UniProt Q5VT25); settings: Compound concentration 1000.0 nM
[26] = biological target: Serine/threonine-protein kinase mTOR (Homo sapiens) (UniProt P42345); settings: Compound concentration 1000.0 nM
[27] = biological target: Phosphatidylinositol 3-kinase C2 domain-containing subunit gamma (Homo sapiens) (UniProt O75747); settings: Compound concentration 1000.0 nM
[28] = system: Phosphatidylinositol 4,5-bisphosphate 3-kinase catalytic subunit alpha isoform (Homo sapiens), P42336 [C420R]; settings: Compound concentration 1000.0 nM
[29] = biological target: Phosphatidylinositol 4,5-bisphosphate 3-kinase catalytic subunit delta isoform (Homo sapiens) (UniProt O00329); settings: Compound concentration 1000.0 nM
[30] = biological target: Phosphatidylinositol 4-phosphate 5-kinase type-1 gamma (Homo sapiens) (UniProt O60331); settings: Compound concentration 1000.0 nM
[31] = biological target: Membrane-associated tyrosine- and threonine-specific cdc2-inhibitory kinase (Homo sapiens) (UniProt Q99640); settings: Compound concentration 1000.0 nM
[32] = biological target: Serine/threonine-protein kinase PLK4 (Homo sapiens) (UniProt O00444); settings: Compound concentration 1000.0 nM
[33] = biological target: Protein kinase C delta type (Homo sapiens) (UniProt Q05655); settings: Compound concentration 1000.0 nM
[34] = biological target: cAMP-dependent protein kinase catalytic subunit PRKX (Homo sapiens) (UniProt P51817); settings: Compound concentration 1000.0 nM
[35] = biological target: RAF proto-oncogene serine/threonine-protein kinase (Homo sapiens) (UniProt P04049); settings: Compound concentration 1000.0 nM
[36] = biological target: Serine/threonine-protein kinase RIO2 (Homo sapiens) (UniProt Q9BVS4); settings: Compound concentration 1000.0 nM
[37] = biological target: Ribosomal protein S6 kinase alpha-4 (Homo sapiens) (UniProt O75676); settings: Compound concentration 1000.0 nM
[38] = biological target: Serine/threonine-protein kinase TAO3 (Homo sapiens) (UniProt Q9H2K8); settings: Compound concentration 1000.0 nM
[39] = biological target: Serine/threonine-protein kinase tousled-like 1 (Homo sapiens) (UniProt Q9UKI8); settings: Compound concentration 1000.0 nM
[40] = biological target: Testis-specific serine/threonine-protein kinase 3 (Homo sapiens) (UniProt Q96PN8); settings: Compound concentration 1000.0 nM
[41] = biological target: Dual specificity protein kinase TTK (Homo sapiens) (UniProt P33981); settings: Compound concentration 1000.0 nM
[42] = biological target: Tyrosine-protein kinase receptor TYRO3 (Homo sapiens) (UniProt Q06418); settings: Compound concentration 1000.0 nM
[43] = biological target: Mitogen-activated protein kinase kinase kinase 20 (Homo sapiens) (UniProt Q9NYL2); settings: Compound concentration 1000.0 nM
[44] = biological target: 5-hydroxytryptamine receptor 1D (Homo sapiens) (UniProt P28221); settings: Compound concentration 10.0 uM
[45] = biological target: D(1B) dopamine receptor (Homo sapiens) (UniProt P21918); settings: Compound concentration 10.0 uM
D(1B) dopamine receptor (Homo sapiens), sequence (P21918 whole entry): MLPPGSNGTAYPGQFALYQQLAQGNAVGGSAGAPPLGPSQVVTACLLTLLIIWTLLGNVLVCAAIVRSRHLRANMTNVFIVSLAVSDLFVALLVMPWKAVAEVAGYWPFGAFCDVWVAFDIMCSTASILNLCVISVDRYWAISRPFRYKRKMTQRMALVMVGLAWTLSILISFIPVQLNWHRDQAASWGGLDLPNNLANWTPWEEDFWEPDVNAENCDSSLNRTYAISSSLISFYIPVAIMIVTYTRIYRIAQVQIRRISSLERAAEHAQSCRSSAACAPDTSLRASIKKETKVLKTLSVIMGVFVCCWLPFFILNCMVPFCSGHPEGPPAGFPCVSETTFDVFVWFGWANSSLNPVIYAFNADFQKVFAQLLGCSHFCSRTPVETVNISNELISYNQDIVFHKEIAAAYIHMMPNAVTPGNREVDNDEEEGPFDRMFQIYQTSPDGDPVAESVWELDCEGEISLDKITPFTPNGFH

cAMP-dependent protein kinase catalytic subunit PRKX (Homo sapiens), sequence (P51817 whole entry): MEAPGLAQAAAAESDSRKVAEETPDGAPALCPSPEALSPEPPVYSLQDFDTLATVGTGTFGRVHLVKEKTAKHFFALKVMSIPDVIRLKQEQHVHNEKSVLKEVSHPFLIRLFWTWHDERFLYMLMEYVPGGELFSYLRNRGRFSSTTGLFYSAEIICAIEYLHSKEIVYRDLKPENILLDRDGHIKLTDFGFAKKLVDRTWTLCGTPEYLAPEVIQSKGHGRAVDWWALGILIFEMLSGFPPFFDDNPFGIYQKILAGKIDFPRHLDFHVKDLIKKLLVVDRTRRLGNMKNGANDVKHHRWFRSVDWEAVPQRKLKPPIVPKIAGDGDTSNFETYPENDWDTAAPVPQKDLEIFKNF
Macrophage colony-stimulating factor 1 receptor (Homo sapiens), sequence (P07333 whole entry, canonical isoform): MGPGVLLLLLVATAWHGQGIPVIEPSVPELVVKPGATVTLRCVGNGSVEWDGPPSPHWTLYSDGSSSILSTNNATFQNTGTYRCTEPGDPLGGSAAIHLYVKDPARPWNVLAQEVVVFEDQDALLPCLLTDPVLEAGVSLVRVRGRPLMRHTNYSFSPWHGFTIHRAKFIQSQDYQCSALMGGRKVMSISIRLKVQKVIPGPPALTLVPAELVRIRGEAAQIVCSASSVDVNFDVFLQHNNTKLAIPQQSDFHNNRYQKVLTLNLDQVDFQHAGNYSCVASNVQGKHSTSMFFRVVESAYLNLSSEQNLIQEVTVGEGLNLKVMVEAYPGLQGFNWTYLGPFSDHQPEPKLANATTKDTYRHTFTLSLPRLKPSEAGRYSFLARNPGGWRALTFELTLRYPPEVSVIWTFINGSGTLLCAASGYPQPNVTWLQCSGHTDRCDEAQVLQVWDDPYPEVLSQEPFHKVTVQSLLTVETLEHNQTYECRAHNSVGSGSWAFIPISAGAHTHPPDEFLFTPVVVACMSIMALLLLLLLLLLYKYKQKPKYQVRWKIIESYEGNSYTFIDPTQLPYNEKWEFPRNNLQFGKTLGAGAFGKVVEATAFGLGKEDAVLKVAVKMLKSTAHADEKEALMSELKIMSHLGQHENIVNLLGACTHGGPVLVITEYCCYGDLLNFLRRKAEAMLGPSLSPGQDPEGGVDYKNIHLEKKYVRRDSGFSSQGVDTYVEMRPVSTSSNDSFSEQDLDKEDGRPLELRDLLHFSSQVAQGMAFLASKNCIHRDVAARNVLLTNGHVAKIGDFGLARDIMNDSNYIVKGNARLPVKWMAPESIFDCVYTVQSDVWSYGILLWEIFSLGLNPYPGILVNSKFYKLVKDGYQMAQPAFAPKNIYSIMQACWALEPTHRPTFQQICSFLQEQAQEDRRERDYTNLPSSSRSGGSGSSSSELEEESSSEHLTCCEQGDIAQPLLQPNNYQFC
Mitogen-activated protein kinase 3 (Homo sapiens), sequence (P27361 whole entry): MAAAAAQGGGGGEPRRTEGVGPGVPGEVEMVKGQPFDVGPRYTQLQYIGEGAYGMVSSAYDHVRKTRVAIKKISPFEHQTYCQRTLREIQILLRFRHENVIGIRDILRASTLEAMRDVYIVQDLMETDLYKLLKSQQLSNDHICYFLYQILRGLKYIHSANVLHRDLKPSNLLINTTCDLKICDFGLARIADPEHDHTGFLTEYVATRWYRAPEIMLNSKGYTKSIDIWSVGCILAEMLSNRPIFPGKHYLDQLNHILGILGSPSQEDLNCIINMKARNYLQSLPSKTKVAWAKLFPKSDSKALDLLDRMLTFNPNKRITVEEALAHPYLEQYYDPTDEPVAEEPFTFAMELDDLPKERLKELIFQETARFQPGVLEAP
5-hydroxytryptamine receptor 1D (Homo sapiens), sequence (P28221 whole entry): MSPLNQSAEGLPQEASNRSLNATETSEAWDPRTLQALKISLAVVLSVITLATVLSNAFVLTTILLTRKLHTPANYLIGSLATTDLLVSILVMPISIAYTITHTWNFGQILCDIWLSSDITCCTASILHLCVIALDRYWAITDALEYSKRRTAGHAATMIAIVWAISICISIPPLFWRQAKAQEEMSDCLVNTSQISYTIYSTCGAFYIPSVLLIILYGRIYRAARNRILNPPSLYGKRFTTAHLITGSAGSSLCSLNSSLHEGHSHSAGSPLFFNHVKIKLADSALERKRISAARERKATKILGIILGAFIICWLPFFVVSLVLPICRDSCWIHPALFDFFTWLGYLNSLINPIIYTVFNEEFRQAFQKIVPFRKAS
Fibroblast growth factor receptor 3 (Homo sapiens), P22607 [G697C], sequence (P22607 whole entry G697C): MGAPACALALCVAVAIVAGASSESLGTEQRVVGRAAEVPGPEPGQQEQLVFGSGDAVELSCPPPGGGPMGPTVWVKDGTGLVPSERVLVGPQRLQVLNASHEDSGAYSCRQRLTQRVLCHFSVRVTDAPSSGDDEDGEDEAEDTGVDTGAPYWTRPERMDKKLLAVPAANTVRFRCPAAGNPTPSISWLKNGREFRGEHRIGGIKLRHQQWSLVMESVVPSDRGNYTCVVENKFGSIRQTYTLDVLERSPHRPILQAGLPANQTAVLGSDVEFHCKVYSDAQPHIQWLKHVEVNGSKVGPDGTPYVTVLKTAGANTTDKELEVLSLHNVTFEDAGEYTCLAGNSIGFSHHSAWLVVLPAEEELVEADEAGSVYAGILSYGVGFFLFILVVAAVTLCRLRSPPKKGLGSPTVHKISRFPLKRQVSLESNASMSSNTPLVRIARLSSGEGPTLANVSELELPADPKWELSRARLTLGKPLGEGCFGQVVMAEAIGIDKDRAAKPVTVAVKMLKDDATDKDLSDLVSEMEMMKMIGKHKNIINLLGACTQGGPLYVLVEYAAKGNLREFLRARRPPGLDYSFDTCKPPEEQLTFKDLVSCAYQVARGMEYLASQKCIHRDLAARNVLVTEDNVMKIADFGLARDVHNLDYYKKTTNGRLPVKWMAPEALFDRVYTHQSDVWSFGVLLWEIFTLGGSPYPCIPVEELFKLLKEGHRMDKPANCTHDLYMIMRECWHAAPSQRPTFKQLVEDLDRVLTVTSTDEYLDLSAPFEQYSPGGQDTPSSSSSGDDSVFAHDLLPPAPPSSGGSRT
Aurora kinase A (Homo sapiens), sequence (O14965 whole entry): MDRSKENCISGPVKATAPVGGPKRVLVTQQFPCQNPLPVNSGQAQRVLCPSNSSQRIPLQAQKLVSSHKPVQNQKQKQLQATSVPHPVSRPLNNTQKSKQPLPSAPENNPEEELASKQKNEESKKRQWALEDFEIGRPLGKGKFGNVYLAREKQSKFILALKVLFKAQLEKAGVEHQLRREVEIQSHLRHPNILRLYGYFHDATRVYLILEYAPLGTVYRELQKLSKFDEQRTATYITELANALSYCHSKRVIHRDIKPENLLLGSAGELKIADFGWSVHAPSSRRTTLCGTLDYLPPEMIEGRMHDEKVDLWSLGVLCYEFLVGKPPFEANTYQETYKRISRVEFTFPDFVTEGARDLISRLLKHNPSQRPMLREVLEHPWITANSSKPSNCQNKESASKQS
Activin receptor type-1-like (Homo sapiens), sequence (P37023 whole entry): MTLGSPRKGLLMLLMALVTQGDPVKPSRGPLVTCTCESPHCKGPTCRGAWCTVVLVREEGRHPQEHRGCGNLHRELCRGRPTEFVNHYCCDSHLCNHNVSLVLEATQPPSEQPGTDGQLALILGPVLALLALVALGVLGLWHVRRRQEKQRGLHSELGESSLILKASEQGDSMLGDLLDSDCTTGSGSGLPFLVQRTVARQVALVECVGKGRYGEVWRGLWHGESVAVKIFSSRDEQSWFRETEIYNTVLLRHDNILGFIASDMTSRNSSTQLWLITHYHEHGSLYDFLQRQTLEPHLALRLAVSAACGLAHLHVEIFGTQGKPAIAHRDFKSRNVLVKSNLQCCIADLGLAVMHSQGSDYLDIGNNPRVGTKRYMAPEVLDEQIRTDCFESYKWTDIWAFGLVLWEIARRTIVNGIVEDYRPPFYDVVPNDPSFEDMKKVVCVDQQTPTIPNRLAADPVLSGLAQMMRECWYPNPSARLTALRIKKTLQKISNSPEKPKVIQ
MAP kinase-interacting serine/threonine-protein kinase 1 (Homo sapiens), sequence (Q9BUB5 whole entry, looked up): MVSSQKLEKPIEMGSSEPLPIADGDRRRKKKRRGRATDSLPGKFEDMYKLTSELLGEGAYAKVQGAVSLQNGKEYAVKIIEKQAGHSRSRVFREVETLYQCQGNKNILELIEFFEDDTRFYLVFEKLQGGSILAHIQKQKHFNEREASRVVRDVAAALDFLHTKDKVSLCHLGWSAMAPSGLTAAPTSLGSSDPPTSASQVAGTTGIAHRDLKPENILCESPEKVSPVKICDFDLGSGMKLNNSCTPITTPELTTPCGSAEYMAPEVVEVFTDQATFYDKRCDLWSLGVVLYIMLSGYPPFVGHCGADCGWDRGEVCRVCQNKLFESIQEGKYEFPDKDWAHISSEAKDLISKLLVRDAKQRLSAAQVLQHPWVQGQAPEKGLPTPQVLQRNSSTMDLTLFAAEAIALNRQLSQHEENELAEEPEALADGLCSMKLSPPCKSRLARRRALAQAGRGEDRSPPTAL

## CCS(=O)(=O)c1cc2cc(C[C@@](O)(CC(C)(C)c3ccc(F)cc3C(N)=O)C(F)(F)F)[nH]c2cn1
[1]
  residual activity: 94%
[2]
  residual activity: 100%
[3]
  residual activity: 100%
[4]
  residual activity: 77%
[5]
  residual activity: 88%
[6]
  residual activity: 85%
[7]
  residual activity: 56%
[8]
  residual activity: 84%
[9]
  residual activity: 94%
[10]
  residual activity: 100%
[11]
  residual activity: 75%
[12]
  residual activity: 95%
[13]
  residual activity: 98%
[14]
  residual activity: 100%
[15]
  residual activity: 88%
[16]
  residual activity: 100%
[17]
  residual activity: 100%
[18]
  residual activity: 100%
[19]
  residual activity: 64%
[20]
  residual activity: 89%
[21]
  residual activity: 100%
[22]
  residual activity: 100%
[23]
  residual activity: 67%
[24]
  residual activity: 46%
[25]
  residual activity: 100%
[26]
  residual activity: 100%
[27]
  residual activity: 100%
[28]
  residual activity: 89%
[29]
  residual activity: 90%
[30]
  residual activity: 98%
[31]
  residual activity: 67%
[32]
  residual activity: 87%
[33]
  residual activity: 99%
[34]
  residual activity: 77%
[35]
  residual activity: 81%
[36]
  residual activity: 95%
[37]
  residual activity: 71%
[38]
  residual activity: 78%
[39]
  residual activity: 0%
[40]
  residual activity: 96%
[41]
  residual activity: 78%
[42]
  residual activity: 92%
[43]
  residual activity: 100%
[44]
  inhibition: 7.98%
[45]
  inhibition: 32.4%

## CCS(=O)(=O)c1cc2cc(C[C@](O)(CC(C)(C)c3ccc(F)cc3C(N)=O)C(F)(F)F)[nH]c2cn1
[1]
  residual activity: 100%
[2]
  residual activity: 100%
[3]
  residual activity: 100%
[4]
  residual activity: 100%
[5]
  residual activity: 88%
[6]
  residual activity: 77%
[7]
  residual activity: 100%
[8]
  residual activity: 92%
[9]
  residual activity: 100%
[10]
  residual activity: 100%
[11]
  residual activity: 100%
[12]
  residual activity: 100%
[13]
  residual activity: 93%
[14]
  residual activity: 96%
[15]
  residual activity: 100%
[16]
  residual activity: 100%
[17]
  residual activity: 100%
[18]
  residual activity: 100%
[19]
  residual activity: 100%
[20]
  residual activity: 96%
[21]
  residual activity: 95%
[22]
  residual activity: 97%
[23]
  residual activity: 100%
[24]
  residual activity: 97%
[25]
  residual activity: 89%
[26]
  residual activity: 77%
[27]
  residual activity: 100%
[28]
  residual activity: 95%
[29]
  residual activity: 89%
[30]
  residual activity: 100%
[31]
  residual activity: 100%
[32]
  residual activity: 80%
[33]
  residual activity: 100%
[34]
  residual activity: 100%
[35]
  residual activity: 83%
[36]
  residual activity: 100%
[37]
  residual activity: 94%
[38]
  residual activity: 86%
[39]
  residual activity: 75%
[40]
  residual activity: 100%
[41]
  residual activity: 99%
[42]
  residual activity: 81%
[43]
  residual activity: 87%
[44]
  inhibition: 5.54%
[45]
  inhibition: 34.2%

From ChEMBL document CHEMBL4507277
